In PubChem BioAssay AID2060902 (Molecular Pharmacology Branch, DTP, NCI, 2025):

Test system: 485368-065-R3-J5-PDC spheroids with HUVEC/MSC, viability
Assay: Anticancer human tumor 485368-065-R3-J5-PDC patient-derived pancreatic carcinoma cell line growth inhibition [RAS]
Details: for IC50: curve of first compound; for viability, T/C: stronger effect = lower value
In short: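 Tumour cells grown as complex spheroids with HUVEC endothelial cells and mesenchymal stem cells, treated with RAS pathway inhibitor combinations. Each agent spans half-log steps from near clinical Cmax, or 10 microM where Cmax is unknown.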

[1] = second compound 0.00316 µM, first compound 0.00316 µM
[2] = second compound 0.00316 µM, first compound 0.01 µM
[3] = second compound 0.00316 µM, first compound 0.0316 µM
[4] = second compound 0.00316 µM, first compound 0.1 µM
[5] = second compound 0.00316 µM, first compound 0.316 µM
[6] = second compound 0.00316 µM, first compound 1 µM
[7] = second compound 0.01 µM, first compound 0.00316 µM
[8] = second compound 0.01 µM, first compound 0.01 µM
[9] = second compound 0.01 µM, first compound 0.0316 µM
[10] = second compound 0.01 µM, first compound 0.1 µM
[11] = second compound 0.01 µM, first compound 0.316 µM
[12] = second compound 0.01 µM, first compound 1 µM
[13] = second compound 0.0316 µM, first compound 0.00316 µM
[14] = second compound 0.0316 µM, first compound 0.01 µM
[15] = second compound 0.0316 µM, first compound 0.0316 µM
[16] = second compound 0.0316 µM, first compound 0.1 µM
[17] = second compound 0.0316 µM, first compound 0.316 µM
[18] = second compound 0.0316 µM, first compound 1 µM
[19] = second compound 0.1 µM, first compound 0.00316 µM
[20] = second compound 0.1 µM, first compound 0.01 µM
[21] = second compound 0.1 µM, first compound 0.0316 µM
[22] = second compound 0.1 µM, first compound 0.1 µM
[23] = second compound 0.1 µM, first compound 0.316 µM
[24] = second compound 0.1 µM, first compound 1 µM
[25] = second compound 0.316 µM, first compound 0.00316 µM
[26] = second compound 0.316 µM, first compound 0.01 µM
[27] = second compound 0.316 µM, first compound 0.0316 µM
[28] = second compound 0.316 µM, first compound 0.1 µM
[29] = second compound 0.316 µM, first compound 0.316 µM
[30] = second compound 0.316 µM, first compound 1 µM
[31] = second compound 1 µM, first compound 0.00316 µM
[32] = second compound 1 µM, first compound 0.01 µM
[33] = second compound 1 µM, first compound 0.0316 µM
[34] = second compound 1 µM, first compound 0.1 µM
[35] = second compound 1 µM, first compound 0.316 µM
[36] = second compound 1 µM, first compound 1 µM
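Further: spheroids exposed to agents for seven days before readout.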

C=CC(=O)Nc1cc(Nc2nccc(-c3cn(C)c4ccccc34)n2)c(OC)cc1N(C)CCN(C)C + C=CC(=O)N1CCN(c2nc(OCC3CCCN3C)nc3c(F)c(-c4nc(N)cc(C)c4C(F)(F)F)c(Cl)cc23)C(C)C1
IC50 (second compound 0.00316 µM): > 1000 nM
IC50 (second compound 0.01 µM): > 1000 nM
IC50 (second compound 0.0316 µM): > 1000 nM
IC50 (second compound 0.1 µM): > 1000 nM
IC50 (second compound 0.316 µM): > 1000 nM
IC50 (second compound 1 µM): > 1000 nM
viability, T/C [1]: 103%
viability, T/C [2]: 89.9%
viability, T/C [3]: 104%
viability, T/C [4]: 104%
viability, T/C [5]: 108%
viability, T/C [6]: 97.1%
viability, T/C [7]: 105%
viability, T/C [8]: 96.9%
viability, T/C [9]: 94.8%
viability, T/C [10]: 100%
viability, T/C [11]: 115%
viability, T/C [12]: 89.5%
viability, T/C [13]: 100%
viability, T/C [14]: 98.9%
viability, T/C [15]: 99.4%
viability, T/C [16]: 109%
viability, T/C [17]: 108%
viability, T/C [18]: 94.1%
viability, T/C [19]: 99.8%
viability, T/C [20]: 98.6%
viability, T/C [21]: 99.7%
viability, T/C [22]: 103%
viability, T/C [23]: 100%
viability, T/C [24]: 85%
viability, T/C [25]: 98%
viability, T/C [26]: 93.1%
viability, T/C [27]: 111%
viability, T/C [28]: 119%
viability, T/C [29]: 117%
viability, T/C [30]: 87.8%
viability, T/C [31]: 106%
viability, T/C [32]: 96.8%
viability, T/C [33]: 110%
viability, T/C [34]: 112%
viability, T/C [35]: 106%
viability, T/C [36]: 87.8%

CC(Nc1ccc2c(c1)OCCn1cc(N3C(=O)OCC3C(F)F)nc1-2)C(N)=O (stereo unspecified) + C=CC(=O)N1CCN(c2nc(OCC3CCCN3C)nc3c(F)c(-c4nc(N)cc(C)c4C(F)(F)F)c(Cl)cc23)C(C)C1
IC50 (second compound 0.00316 µM): > 10000 nM
IC50 (second compound 0.01 µM): > 10000 nM
IC50 (second compound 0.0316 µM): > 10000 nM
IC50 (second compound 0.1 µM): 9800 nM
IC50 (second compound 0.316 µM): > 10000 nM
IC50 (second compound 1 µM): 4990 nM
viability, T/C [3]: 103%
viability, T/C [4]: 79.8%
viability, T/C [5]: 88.5%
viability, T/C [6]: 75.4%
viability, T/C (second compound 0.00316 µM, first compound 3.16 µM): 75.6%
viability, T/C (second compound 0.00316 µM, first compound 10 µM): 51.3%
viability, T/C [9]: 92.4%
viability, T/C [10]: 86.9%
viability, T/C [11]: 91.8%
viability, T/C [12]: 72.8%
viability, T/C (second compound 0.01 µM, first compound 3.16 µM): 76.5%
viability, T/C (second compound 0.01 µM, first compound 10 µM): 49.5%
viability, T/C [15]: 87.1%
viability, T/C [16]: 72.3%
viability, T/C [17]: 88%
viability, T/C [18]: 85.7%
viability, T/C (second compound 0.0316 µM, first compound 3.16 µM): 76.4%
viability, T/C (second compound 0.0316 µM, first compound 10 µM): 52.1%
viability, T/C [21]: 100%
viability, T/C [22]: 97.6%
viability, T/C [23]: 102%
viability, T/C [24]: 82%
viability, T/C (second compound 0.1 µM, first compound 3.16 µM): 73.8%
viability, T/C (second compound 0.1 µM, first compound 10 µM): 49.3%
viability, T/C [27]: 98.5%
viability, T/C [28]: 87.1%
viability, T/C [29]: 78.4%
viability, T/C [30]: 70.5%
viability, T/C (second compound 0.316 µM, first compound 3.16 µM): 82.8%
viability, T/C (second compound 0.316 µM, first compound 10 µM): 57.1%
viability, T/C [33]: 101%
viability, T/C [34]: 90.5%
viability, T/C [35]: 87.5%
viability, T/C [36]: 84.7%
viability, T/C (second compound 1 µM, first compound 3.16 µM): 55%
viability, T/C (second compound 1 µM, first compound 10 µM): 41.3%

O=C(c1ccc(F)c(F)c1Nc1ccc(I)cc1F)N1CC(O)([C@@H]2CCCCN2)C1 + C=CC(=O)N1CCN(c2nc(OCC3CCCN3C)nc3c(F)c(-c4nc(N)cc(C)c4C(F)(F)F)c(Cl)cc23)C(C)C1
IC50 (second compound 0.00316 µM): 28.6 nM
IC50 (second compound 0.01 µM): 27.8 nM
IC50 (second compound 0.0316 µM): 31.1 nM
IC50 (second compound 0.1 µM): 29.1 nM
IC50 (second compound 0.316 µM): 34.4 nM
IC50 (second compound 1 µM): 49.6 nM
viability, T/C [1]: 106%
viability, T/C [2]: 60.2%
viability, T/C [3]: 56.9%
viability, T/C [4]: 30.1%
viability, T/C [5]: 24.3%
viability, T/C [6]: 8.78%
viability, T/C [7]: 99.8%
viability, T/C [8]: 71.6%
viability, T/C [9]: 44.8%
viability, T/C [10]: 29.5%
viability, T/C [11]: 26.1%
viability, T/C [12]: 8.23%
viability, T/C [13]: 90.9%
viability, T/C [14]: 73.1%
viability, T/C [15]: 47.8%
viability, T/C [16]: 29.8%
viability, T/C [17]: 23.1%
viability, T/C [18]: 7.64%
viability, T/C [19]: 86%
viability, T/C [20]: 72.3%
viability, T/C [21]: 44.6%
viability, T/C [22]: 30.4%
viability, T/C [23]: 25.3%
viability, T/C [24]: 8.95%
viability, T/C [25]: 85.8%
viability, T/C [26]: 68.6%
viability, T/C [27]: 50.5%
viability, T/C [28]: 33.1%
viability, T/C [29]: 26.8%
viability, T/C [30]: 8.9%
viability, T/C [31]: 91.6%
viability, T/C [32]: 65.5%
viability, T/C [33]: 52.7%
viability, T/C [34]: 47.3%
viability, T/C [35]: 27.6%
viability, T/C [36]: 11.4%
